This experiment has as its target T1, full length human recombinant glucocorticoid receptor (Homo sapiens, UniProt P04150).
T1 construct: It contains some partially purified full length human recombinant glucocorticoid receptor; purchased Panvera/Invitrogen PV4302
T1 sequence (P04150 1-777): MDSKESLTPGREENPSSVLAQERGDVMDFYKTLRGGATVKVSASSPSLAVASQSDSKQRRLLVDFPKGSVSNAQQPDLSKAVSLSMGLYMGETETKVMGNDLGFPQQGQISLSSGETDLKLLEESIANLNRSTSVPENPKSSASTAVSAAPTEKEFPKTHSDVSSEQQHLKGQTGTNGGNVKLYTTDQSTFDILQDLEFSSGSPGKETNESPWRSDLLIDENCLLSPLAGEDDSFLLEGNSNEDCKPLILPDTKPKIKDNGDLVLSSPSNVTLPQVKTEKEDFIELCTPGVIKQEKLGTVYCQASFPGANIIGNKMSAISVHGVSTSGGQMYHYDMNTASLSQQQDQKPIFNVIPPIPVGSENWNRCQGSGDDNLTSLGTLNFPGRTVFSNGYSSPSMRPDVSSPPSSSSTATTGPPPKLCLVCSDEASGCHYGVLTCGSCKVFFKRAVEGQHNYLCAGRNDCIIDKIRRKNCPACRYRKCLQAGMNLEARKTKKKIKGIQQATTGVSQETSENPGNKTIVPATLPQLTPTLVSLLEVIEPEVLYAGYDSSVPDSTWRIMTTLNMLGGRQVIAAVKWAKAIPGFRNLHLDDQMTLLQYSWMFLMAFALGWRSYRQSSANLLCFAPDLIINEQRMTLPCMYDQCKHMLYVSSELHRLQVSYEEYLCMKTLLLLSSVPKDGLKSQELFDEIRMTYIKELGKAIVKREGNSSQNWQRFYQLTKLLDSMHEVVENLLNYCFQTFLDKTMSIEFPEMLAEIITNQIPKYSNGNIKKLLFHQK
The experiment is described as follows: Glucocorticoid Receptor Binding Assay (Glucocorticoid Receptor Competitor Assay far red kit, fluorescence polarization). Particulars: competition with fluorescent GR ligand Fluormone GS Far Red, 3 hours at 22° C., pH 7.4; Ki calculated from IC50 by Cheng-Prusoff. An outline of the steps:
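Fluorescence polarization competition with partially purified full-length human recombinant GR, stabilizing peptide and Fluormone GS Far Red tracer in screening buffer pH 7.4; 3 hours at 22° C in the dark, read at 610–660 nm. IC50 from sigmoidal fit; Ki by Cheng-Prusoff.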

Each structure is given as a SMILES string.

Usually Ki stands for a measure of affinity in units of concentration, obtained from inhibition or displacement.

On to `C[C@H](c1ccc(Oc2ccc(C(=O)O)c(F)c2)cc1Cl)[C@@](O)(c1ccc2c(c1)OCC(=O)N2C)C(F)(F)F` (stereo in doubt) [Example 166, 4-{3-Chloro-4-[3,3,3-trifluoro-2-hydroxy-1-methyl-2-(4-methyl-3-oxo-3,4-dihydro-2H-benzo[1,4]oxazin-7-yl)-propyl]phenoxy}-2-fluoro-benzoic acid], for which the Ki was 2.7 nM.

As to `C[C@H](c1ccc(-c2ccc(C(=O)O)c(F)c2)cc1Cl)[C@@](O)(c1ccc2c(c1)N(C)CCO2)C(F)(F)F` (stereo in doubt) [Example 170, 3′-Chloro-3-fluoro-4′-[3,3,3-trifluoro-2-hydroxy-1-methyl-2-(4-methyl-3,4-dihydro-2H-benzo[1,4]oxazin-6-yl)-propyl]-biphenyl-4-carboxylic acid], the Ki is 210 nM.

`COc1ccc([C@@H](C)[C@@](O)(c2ccc3oc(=O)n(C)c3c2)C(F)(F)F)c(Cl)c1` (stereo in doubt) [Example 171, 5-[2-(2-Chloro-4-methoxy-phenyl)-1-hydroxy-1-trifluoromethyl-propyl]-3-methyl-3H-benzooxazol-2-one]: the inhibition constant (Ki) was 0.4 nM.

Consider `C[C@H](c1ccc(Oc2ccc(C(=O)O)c(F)c2)cc1Cl)[C@@](O)(c1ccc2oc(=O)n(C)c2c1)C(F)(F)F` (stereo in doubt) [Example 177, 4-{3-Chloro-4-[3,3,3-trifluoro-2-hydroxy-1-methyl-2-(3-methyl-2-oxo-2,3-dihydro-benzooxazol-5-yl)-propyl]-phenoxy}-2-fluoro-benzoic acid], for which the Ki is 1.3 nM.

As for `C[C@H](c1ccc(-c2cccc(C(=O)O)c2)cc1Cl)[C@@](O)(c1ccc2c(c1)oc(=O)n2C)C(F)(F)F` (stereo in doubt) [Example 179, 3′-Chloro-4′-[3,3,3-trifluoro-2-hydroxy-1-methyl-2-(3-methyl-2-oxo-2,3-dihydro-benzooxazol-6-yl)-propyl]-biphenyl-3-carboxylic acid], the Ki was 13.3 nM.

Regarding `C[C@H](c1ccc(Oc2ncc(C(=O)O)cc2Cl)cc1Cl)[C@@](O)(c1ccc2oc(=O)n(C)c2c1)C(F)(F)F` (stereo in doubt) [Example 180, 5-Chloro-6-{3-chloro-4-[3,3,3-trifluoro-2-hydroxy-1-methyl-2-(3-methyl-2-oxo-2,3-dihydro-benzooxazol-5-yl)-propyl]-phenoxy}-nicotinic acid], the Ki is 1 nM.

On to `C[C@H](c1ccc(Oc2ccc(C(=O)O)cn2)cc1Cl)[C@@](O)(c1ccc2oc(=O)n(C)c2c1)C(F)(F)F` (stereo in doubt) [Example 181, 6-{3-Chloro-4-[3,3,3-trifluoro-2-hydroxy-1-methyl-2-(3-methyl-2-oxo-2,3-dihydro-benzooxazol-5-yl)-propyl]-phenoxy}-nicotinic acid], for which the Ki was 0.5 nM.

Consider `COC(=O)c1ccc(Oc2ccc([C@@H](C)[C@@](O)(c3ccc4oc(=O)n(C)c4c3)C(F)(F)F)c(Cl)c2)nc1Cl` (stereo in doubt) [Example 182, 2-Chloro-6-{3-chloro-4-[3,3,3-trifluoro-2-hydroxy-1-methyl-2-(3-methyl-2-oxo-2,3-dihydro-benzooxazol-5-yl)-propyl]-phenoxy}-nicotinic acid methyl ester], for which the Ki is 3.3 nM.

For `COc1ccc(Cl)c([C@@H](C)[C@@](O)(c2ccc3oc(=O)n(C)c3c2)C(F)(F)F)c1` (stereo in doubt) [Example 192, 5-[2-(2-Chloro-5-methoxy-phenyl)-1-hydroxy-1-trifluoromethyl-propyl]-3-methyl-3H-benzooxazol-2-one], the inhibition constant Ki was 0.8 nM.

`C[C@H](c1ccc(-c2ccnnc2)cc1Cl)[C@@](O)(c1ccc2oc(=O)n(C)c2c1)C(F)(F)F` (stereo in doubt) [Example 195, 5-[2-(2-Chloro-4-pyridazin-4-yl-phenyl)-1-hydroxy-1-trifluoromethyl-propyl]-3-methyl-3H-benzooxazol-2-one]: the Ki is 0.8 nM.

Regarding `C[C@H](c1ccc(Oc2ncccn2)cc1Cl)[C@@](O)(c1ccc2oc(=O)n(C)c2c1)C(F)(F)F` (stereo in doubt) [Example 196, 5-{2-[2-Chloro-4-(pyrimidin-2-yloxy)-phenyl]-1-hydroxy-1-trifluoromethyl-propyl}-3-methyl-3H-benzooxazol-2-one], the Ki is 1.6 nM.

For `C[C@H](c1cc(O)ccc1Cl)[C@@](O)(c1ccc2oc(=O)n(C)c2c1)C(F)(F)F` (stereo in doubt) [Example 197, 5-[2-(2-Chloro-5-hydroxy-phenyl)-1-hydroxy-1-trifluoromethyl-propyl]-3-methyl-3H-benzooxazol-2-one], the Ki was 5.8 nM.

`C[C@H](c1ccc(-c2ccc(C(=O)O)c(F)c2)cc1C(F)(F)F)[C@@](O)(c1ccc2oc(=O)n(C)c2c1)C(F)(F)F` (stereo in doubt) [Example 200, 3-Fluoro-4′-[3,3,3-trifluoro-2-hydroxy-1-methyl-2-(3-methyl-2-oxo-2,3-dihydro-benzooxazol-5-yl)-propyl]-3′-trifluoromethyl-biphenyl-4-carboxylic acid]: the Ki is 4.5 nM.

For `C[C@H](c1ccc(Oc2ccc(C(=O)O)cn2)cc1Cl)[C@@](O)(c1ccc2c(c1)N(C)C(=O)CO2)C(F)(F)F` (stereo in doubt) [Example 205, 6-{3-Chloro-4-[3,3,3-trifluoro-2-hydroxy-1-methyl-2-(4-methyl-3-oxo-3,4-dihydro-2H-benzo[1,4]oxazin-6-yl)-propyl]-phenoxy}-nicotinic acid], the Ki is 2.5 nM.

Turning to `C[C@H](c1ccc(OC(C)(C)C(=O)O)cc1Cl)[C@@](O)(c1ccc2c(c1)N(C)C(=O)CO2)C(F)(F)F` (stereo in doubt) [Example 207, 2-{3-Chloro-4-[3,3,3-trifluoro-2-hydroxy-1-methyl-2-(4-methyl-3-oxo-3,4-dihydro-2H-benzo[1,4]oxazin-6-yl)-propyl]-phenoxy}-2-methyl-propionic acid], the Ki was 370 nM.

`C[C@H](c1ccc(Oc2ccc(C(=O)O)c(Cl)n2)cc1Cl)[C@@](O)(c1ccc2c(c1)N(C)C(=O)CO2)C(F)(F)F` (stereo in doubt) [Example 209, 2-Chloro-6-{3-chloro-4-[3,3,3-trifluoro-2-hydroxy-1-methyl-2-(4-methyl-3-oxo-3,4-dihydro-2H-benzo[1,4]oxazin-6-yl)-propyl]-phenoxy}-nicotinic acid]: the Ki was 0.8 nM.

With `C[C@H](c1ccc(Oc2cc(Cl)c(C(=O)O)cn2)cc1Cl)[C@@](O)(c1ccc2c(c1)N(C)C(=O)CO2)C(F)(F)F` (stereo in doubt) [Example 211, 4-Chloro-6-{3-chloro-4-[3,3,3-trifluoro-2-hydroxy-1-methyl-2-(4-methyl-3-oxo-3,4-dihydro-2H-benzo[1,4]oxazin-6-yl)-propyl]-phenoxy}-nicotinic acid], the Ki was 1.2 nM.

With `C[C@H](c1ccc(Oc2ccc(C(=O)O)c(C(F)(F)F)n2)cc1Cl)[C@@](O)(c1ccc2c(c1)N(C)C(=O)CO2)C(F)(F)F` (stereo in doubt) [Example 215, 6-{3-Chloro-4-[3,3,3-trifluoro-2-hydroxy-1-methyl-2-(4-methyl-3-oxo-3,4-dihydro-2H-benzo[1,4]oxazin-6-yl)-propyl]-phenoxy}-2-trifluoromethyl-nicotinic acid], the Ki was 1.4 nM.

On to `CCOC(=O)C(C)(C)Oc1ccc([C@@H](C)[C@@](O)(c2ccc3oc(=O)n(C)c3c2)C(F)(F)F)c(Cl)c1` (stereo in doubt) [Example 229, 2-{3-Chloro-4-[3,3,3-trifluoro-2-hydroxy-1-methyl-2-(3-methyl-2-oxo-2,3-dihydro-benzooxazol-5-yl)-propyl]-phenoxy}-2-methyl-propionic acid ethyl ester], for which the Ki was 3.9 nM.

With `C[C@H](c1ccc(OC(C)(C)C(=O)O)cc1Cl)[C@@](O)(c1ccc2oc(=O)n(C)c2c1)C(F)(F)F` (stereo in doubt) [Example 230, 2-{3-Chloro-4-[3,3,3-trifluoro-2-hydroxy-1-methyl-2-(3-methyl-2-oxo-2,3-dihydro-benzooxazol-5-yl)-propyl]-phenoxy}-2-methyl-propionic acid], the Ki was 35.3 nM.

As for `C[C@H](c1ccc(C(=O)NCC(=O)OC(C)(C)C)cc1Cl)[C@@](O)(c1ccc2oc(=O)n(C)c2c1)C(F)(F)F` (stereo in doubt) [Example 231, {3-Chloro-4-[3,3,3-trifluoro-2-hydroxy-1-methyl-2-(3-methyl-2-oxo-2,3-dihydrobenzooxazol-5-yl)-propyl]-benzoylamino}-acetic acid tert-butyl ester], the Ki was 6.9 nM.

(Values after US8450313B2, “2,3-diaryl- or heteroaryl-substituted 1,1,1-trifluoro-2-hydroxypropyl compounds” (Hoffmann-La Roche Inc., priority 2009, dated 2013).)
